Experiments:
Format in all cases: cell-based
DU-145 = test: MTT cell viability, DU-145 (prostate cancer); details: Homo sapiens, 48 hour incubation, read-out: Drug concentrations for 50% cell viability (IC50)
Protocol: (§1) In vitro anticancer activity of the compound of Formula I was performed using popular MTT method (Archives of Biochemistry and Biophysics, 1993, 303, […]) against lung cancer, colorectal cancer, cervical cancer, osteosarcoma, leiomyosarcoma, malignant melanoma, pancreas cancer, prostate cancer, nasopharyngeal cancer, glioma, esophageal cancer, stomach cancer, and liver cancer.
(§2) Cell Culture: A549, DLD1, SW480, LOVO, HT-29, Hela, U-20S, MES-SA, SK-MEL-28, Panc-1, DU-145, CNE, U251, Eca-109, MGC80-3, QGY-7701, BEL-7404, PLC/PRF/5, Huh-7, and SGC-7901 cells were maintained in Dulbecco's Modified Eagle Medium (DMEM) (imported from Invitrogen, Carlsbad, Calif., USA) supplemented with 10% fetal bovine serum (FBS) (Si Ji Qing, Hangzhou, China) and 1% penicillin/streptomycin/amphotercin B (imported from Invitrogen, Carlsbad, Calif., USA). Cell Viability Determination: Popular MTT method (Archives of Biochemistry and Biophysics. 1993, 303, 474-482) was used to screen the in vitro effects of the invented drugs. Briefly, 5000 to 10000 cells were inoculated per well in a 96-well plate. After overnight incubation, drug was added to the wells at final concentration of 10 μM, 5 μM, 2.5 μM, 1.25 μM, or 1 μM, 0.75 μM, 0.5 μM and 0.25 μM in complete culture medium. Each dose level covered 4 equivalent wells. After 48 hour incubation, one tenth volume of 5 mg/mL MTT (thiazolyl blue tetrazolium bromide, Sigma-Aldrich) stock solution was added, and incubation continued for 2 hours. Then medium was removed and 100 μL of isopropanol solution comprising 86% isopropanol, 4% aqueous 1N HCl and 10% aqueous solution of 10% SDS was added. The absorbance of each well at 570 nm wavelength was measured by a micro-plate reader after gentle shaking for 20 minutes. Drug concentrations of 50% cell viability (IC50) were calculated by LOGIT method.

SW480 = test: MTT cell viability, SW480 (colorectal cancer); details: Homo sapiens, 48 hour incubation, read-out: Drug concentrations for 50% cell viability (IC50)
Protocol: as §1
as §2, with “Each dose level covered 4 equivalent wells. After 48 hour incubation, one tenth volume of 5 mg/mL MTT (thiazolyl blue tetrazolium bromide, Sigma-Aldrich) stock solution was added, and incubation continued for 2 hours. Then medium was removed and 100 μL of isopropanol solution comprising 86% isopropanol, 4% aqueous 1N HCl and 10% aqueous solution of 10% SDS was added.” left out, “Drug concentrations of 50% cell viability (IC50) were calculated by LOGIT method.” left out

SK-MEL-28 = test: MTT cell viability, SK-MEL-28 (malignant melanoma); details: Homo sapiens, 48 hour incubation, read-out: Drug concentrations for 50% cell viability (IC50)
Protocol: as §1
as §2, with “Each dose level covered 4 equivalent wells. After 48 hour incubation, one tenth volume of 5 mg/mL MTT (thiazolyl blue tetrazolium bromide, Sigma-Aldrich) stock solution was added, and incubation continued for 2 hours. Then medium was removed and 100 μL of isopropanol solution comprising 86% isopropanol, 4% aqueous 1N HCl and 10% aqueous solution of 10% SDS was added.” left out, “Drug concentrations of 50% cell viability (IC50) were calculated by LOGIT method.” left out

DLD1 = test: MTT cell viability, DLD1 (colorectal cancer); details: Homo sapiens, DLD-1, 48 hour incubation, read-out: Drug concentrations for 50% cell viability (IC50)
Protocol: as §1, §2

A549 = test: MTT cell viability, A549 (lung cancer); details: Homo sapiens, 48 hour incubation, read-out: Drug concentrations for 50% cell viability (IC50)
Protocol: as §1, §2

Panc-1 = test: MTT cell viability, Panc-1 (pancreatic cancer); details: Homo sapiens, 48 hour incubation, read-out: Drug concentrations for 50% cell viability (IC50)
Protocol: as §1
as §2, with “Each dose level covered 4 equivalent wells. After 48 hour incubation, one tenth volume of 5 mg/mL MTT (thiazolyl blue tetrazolium bromide, Sigma-Aldrich) stock solution was added, and incubation continued for 2 hours. Then medium was removed and 100 μL of isopropanol solution comprising 86% isopropanol, 4% aqueous 1N HCl and 10% aqueous solution of 10% SDS was added.” left out, “Drug concentrations of 50% cell viability (IC50) were calculated by LOGIT method.” left out

Hela = test: MTT cell viability, Hela (cervical cancer); details: Homo sapiens, 48 hour incubation, read-out: Drug concentrations for 50% cell viability (IC50)
Protocol: as §1
as §2, with “Each dose level covered 4 equivalent wells. After 48 hour incubation, one tenth volume of 5 mg/mL MTT (thiazolyl blue tetrazolium bromide, Sigma-Aldrich) stock solution was added, and incubation continued for 2 hours. Then medium was removed and 100 μL of isopropanol solution comprising 86% isopropanol, 4% aqueous 1N HCl and 10% aqueous solution of 10% SDS was added.” left out, “Drug concentrations of 50% cell viability (IC50) were calculated by LOGIT method.” left out

U251 = test: MTT cell viability, U251 (glioma); details: Homo sapiens, U-251, 48 hour incubation, read-out: Drug concentrations for 50% cell viability (IC50)
Protocol: as §1
as §2, with “Each dose level covered 4 equivalent wells. After 48 hour incubation, one tenth volume of 5 mg/mL MTT (thiazolyl blue tetrazolium bromide, Sigma-Aldrich) stock solution was added, and incubation continued for 2 hours. Then medium was removed and 100 μL of isopropanol solution comprising 86% isopropanol, 4% aqueous 1N HCl and 10% aqueous solution of 10% SDS was added.” left out, “Drug concentrations of 50% cell viability (IC50) were calculated by LOGIT method.” left out

Huh-7 = test: MTT cell viability, Huh-7 (liver cancer); details: Homo sapiens, 48 hour incubation, read-out: Drug concentrations for 50% cell viability (IC50)
Protocol: as §1
as §2, with “Each dose level covered 4 equivalent wells. After 48 hour incubation, one tenth volume of 5 mg/mL MTT (thiazolyl blue tetrazolium bromide, Sigma-Aldrich) stock solution was added, and incubation continued for 2 hours. Then medium was removed and 100 μL of isopropanol solution comprising 86% isopropanol, 4% aqueous 1N HCl and 10% aqueous solution of 10% SDS was added.” left out, “Drug concentrations of 50% cell viability (IC50) were calculated by LOGIT method.” left out

PLC/PRF/5 = test: MTT cell viability, PLC/PRF/5 (liver cancer); details: Homo sapiens, 48 hour incubation, read-out: Drug concentrations for 50% cell viability (IC50)
Protocol: as §1
as §2, with “Each dose level covered 4 equivalent wells. After 48 hour incubation, one tenth volume of 5 mg/mL MTT (thiazolyl blue tetrazolium bromide, Sigma-Aldrich) stock solution was added, and incubation continued for 2 hours. Then medium was removed and 100 μL of isopropanol solution comprising 86% isopropanol, 4% aqueous 1N HCl and 10% aqueous solution of 10% SDS was added.” left out, “Drug concentrations of 50% cell viability (IC50) were calculated by LOGIT method.” left out

HT-29 = test: MTT cell viability, HT-29 (colorectal cancer); details: Homo sapiens, 48 hour incubation, read-out: Drug concentrations for 50% cell viability (IC50)
Protocol: as §1
as §2, with “Each dose level covered 4 equivalent wells. After 48 hour incubation, one tenth volume of 5 mg/mL MTT (thiazolyl blue tetrazolium bromide, Sigma-Aldrich) stock solution was added, and incubation continued for 2 hours. Then medium was removed and 100 μL of isopropanol solution comprising 86% isopropanol, 4% aqueous 1N HCl and 10% aqueous solution of 10% SDS was added.” left out, “Drug concentrations of 50% cell viability (IC50) were calculated by LOGIT method.” left out

CNE = test: MTT cell viability, CNE (nasopharyngeal cancer); details: Homo sapiens, 48 hour incubation, read-out: Drug concentrations for 50% cell viability (IC50)
Protocol: as §1
as §2, with “Each dose level covered 4 equivalent wells. After 48 hour incubation, one tenth volume of 5 mg/mL MTT (thiazolyl blue tetrazolium bromide, Sigma-Aldrich) stock solution was added, and incubation continued for 2 hours. Then medium was removed and 100 μL of isopropanol solution comprising 86% isopropanol, 4% aqueous 1N HCl and 10% aqueous solution of 10% SDS was added.” left out, “Drug concentrations of 50% cell viability (IC50) were calculated by LOGIT method.” left out

SGC-7901 = test: MTT cell viability, SGC-7901 (stomach cancer); details: Homo sapiens, 48 hour incubation, read-out: Drug concentrations for 50% cell viability (IC50)
Protocol: as §1
as §2, with “Each dose level covered 4 equivalent wells. After 48 hour incubation, one tenth volume of 5 mg/mL MTT (thiazolyl blue tetrazolium bromide, Sigma-Aldrich) stock solution was added, and incubation continued for 2 hours. Then medium was removed and 100 μL of isopropanol solution comprising 86% isopropanol, 4% aqueous 1N HCl and 10% aqueous solution of 10% SDS was added.” left out, “Drug concentrations of 50% cell viability (IC50) were calculated by LOGIT method.” left out

Eca-109 = test: MTT cell viability, Eca-109 (esophageal cancer); details: Homo sapiens, 48 hour incubation, read-out: Drug concentrations for 50% cell viability (IC50)
Protocol: as §1
as §2, with “Each dose level covered 4 equivalent wells. After 48 hour incubation, one tenth volume of 5 mg/mL MTT (thiazolyl blue tetrazolium bromide, Sigma-Aldrich) stock solution was added, and incubation continued for 2 hours. Then medium was removed and 100 μL of isopropanol solution comprising 86% isopropanol, 4% aqueous 1N HCl and 10% aqueous solution of 10% SDS was added.” left out, “Drug concentrations of 50% cell viability (IC50) were calculated by LOGIT method.” left out

BEL-7404 = test: MTT cell viability, BEL-7404 (liver cancer); details: Homo sapiens, 48 hour incubation, read-out: Drug concentrations for 50% cell viability (IC50)
Protocol: as §1
as §2, with “Each dose level covered 4 equivalent wells. After 48 hour incubation, one tenth volume of 5 mg/mL MTT (thiazolyl blue tetrazolium bromide, Sigma-Aldrich) stock solution was added, and incubation continued for 2 hours. Then medium was removed and 100 μL of isopropanol solution comprising 86% isopropanol, 4% aqueous 1N HCl and 10% aqueous solution of 10% SDS was added.” left out, “Drug concentrations of 50% cell viability (IC50) were calculated by LOGIT method.” left out

QGY-7701 = test: MTT cell viability, QGY-7701 (liver cancer); details: QGY7701, 48 hour incubation, read-out: Drug concentrations for 50% cell viability (IC50)
Protocol: as §1
as §2, with “Each dose level covered 4 equivalent wells. After 48 hour incubation, one tenth volume of 5 mg/mL MTT (thiazolyl blue tetrazolium bromide, Sigma-Aldrich) stock solution was added, and incubation continued for 2 hours. Then medium was removed and 100 μL of isopropanol solution comprising 86% isopropanol, 4% aqueous 1N HCl and 10% aqueous solution of 10% SDS was added.” left out, “Drug concentrations of 50% cell viability (IC50) were calculated by LOGIT method.” left out

LOVO = test: MTT cell viability, LOVO (colorectal cancer); details: Homo sapiens, 48 hour incubation, read-out: Drug concentrations for 50% cell viability (IC50)
Protocol: as §1
as §2, with “Each dose level covered 4 equivalent wells. After 48 hour incubation, one tenth volume of 5 mg/mL MTT (thiazolyl blue tetrazolium bromide, Sigma-Aldrich) stock solution was added, and incubation continued for 2 hours. Then medium was removed and 100 μL of isopropanol solution comprising 86% isopropanol, 4% aqueous 1N HCl and 10% aqueous solution of 10% SDS was added.” left out, “Drug concentrations of 50% cell viability (IC50) were calculated by LOGIT method.” left out

U-20S = test: MTT cell viability, U-20S (osteosarcoma); details: 48 hour incubation, read-out: Drug concentrations for 50% cell viability (IC50)
Protocol: as §1, §2

MGC80-3 = test: MTT cell viability, MGC80-3 (stomach cancer); details: Homo sapiens, MGC-803, 48 hour incubation, read-out: Drug concentrations for 50% cell viability (IC50)
Protocol: as §1
as §2, with “Each dose level covered 4 equivalent wells. After 48 hour incubation, one tenth volume of 5 mg/mL MTT (thiazolyl blue tetrazolium bromide, Sigma-Aldrich) stock solution was added, and incubation continued for 2 hours. Then medium was removed and 100 μL of isopropanol solution comprising 86% isopropanol, 4% aqueous 1N HCl and 10% aqueous solution of 10% SDS was added.” left out, “Drug concentrations of 50% cell viability (IC50) were calculated by LOGIT method.” left out

MES-SA = test: MTT cell viability, MES-SA (leiomyosarcoma); details: Homo sapiens, 48 hour incubation, read-out: Drug concentrations for 50% cell viability (IC50)
Protocol: as §1
as §2, with “Each dose level covered 4 equivalent wells. After 48 hour incubation, one tenth volume of 5 mg/mL MTT (thiazolyl blue tetrazolium bromide, Sigma-Aldrich) stock solution was added, and incubation continued for 2 hours. Then medium was removed and 100 μL of isopropanol solution comprising 86% isopropanol, 4% aqueous 1N HCl and 10% aqueous solution of 10% SDS was added.” left out, “Drug concentrations of 50% cell viability (IC50) were calculated by LOGIT method.” left out

SMILES	IC50 (DU-145) [µM]	IC50 (SW480) [µM]	IC50 (SK-MEL-28) [µM]	IC50 (DLD1) [µM]	IC50 (A549) [µM]	IC50 (Panc-1) [µM]	IC50 (Hela) [µM]	IC50 (U251) [µM]	IC50 (Huh-7) [µM]	IC50 (PLC/PRF/5) [µM]	IC50 (HT-29) [µM]	IC50 (CNE) [µM]	IC50 (SGC-7901) [µM]	IC50 (Eca-109) [µM]	IC50 (BEL-7404) [µM]	IC50 (QGY-7701) [µM]	IC50 (LOVO) [µM]	IC50 (U-20S) [µM]	IC50 (MGC80-3) [µM]	IC50 (MES-SA) [µM]
CS(=O)(=O)c1cc2c(o1)C(=O)c1ccccc1C2=O [Compound I, 2-methylsulfonyl-naphtho[2,3-b]furan-4,9-dione]	0.43	1.17	0.22	0.29	2.5	1.6	1.2	1	2.5	2.5	0.72	1.36	2.5	3.45	1.11	3.5	2.15	0.43	1.2	1.2
C[S+]([O-])c1cc2c(o1)C(=O)c1ccccc1C2=O (stereo not drawn) [Compound II, 2-methylsulfinyl-naphtho[2,3-b]furan-4,9-dione]	0.5	1.25	0.24	0.28	2.5	1.25	1.49	1	2.5	2	0.78	1.25	2.5	3.8	1.1	2.5	4.57	0.39	1.2	1
CS(=O)(=O)c1oc2c(c1-c1ccccc1)C(=O)c1ccccc1C2=O [Compound XV, 2-methylsulfonyl-3-phenyl-naphtho[2,3-b]furan-4,9-dione]	5			2.51	> 10													3.61		
C[S+]([O-])c1oc2c(c1-c1ccccc1)C(=O)c1ccccc1C2=O (stereo not drawn) [Compound XVI, 2-methylsulfinyl-3-phenyl-naphtho[2,3-b]furan-4,9-dione]	3.2			1	6.89													1.25		
